Measured values as given in patent publication US8795632B2, “Disease animal model for chronic pain” (Astellas Pharma Inc., priority 2008, dated 2014).

Tested on: Sprague-Dawley rats
Experiment: Skin pain sensation threshold value after reserpine single administration
Format: in vivo, rat
Settings: reserpine 3 mg/kg single s.c.
Protocol: Measurement of the skin pain sensation threshold value was carried out in the same manner as in Example 1. That is, this was measured using a series of von Frey filaments having different diameter which can add a constant pressure. […] The von Frey filament was applied using the up and down method. That is, by firstly applying a filament of about middle diameter, a filament having one rank smaller diameter was applied when the withdrawal reaction was observed or a filament having one rank larger diameter was applied when the withdrawal reaction was not observed. The skin pain sensation threshold value at each point of time was calculated as a hind paw withdrawal reaction threshold value (g).
Influences of the reserpine single administration upon the muscle pressure pain threshold value, skin pain sensation threshold value, cold sensitivity and heat sensitivity were examined in accordance with the following protocol. A total of 12 male rats were used. The muscle pressure pain threshold value, skin pain sensation threshold value, cold sensitivity and heat sensitivity before the reserpine treatment (base lines) were measured and then they were divided into a solvent (0.5% acetic acid aqueous solution) group and a reserpine (3 mg/kg) group (the number of animals per group was 6). […] The muscle pressure pain threshold value, skin pain sensation threshold value, cold sensitivity and heat sensitivity of each rat were measured at the points of measurement time of acute phase after administration of the solvent or reserpine (2, 4, 8 and 24 hours) and chronic phase (2, 3, 5, 7, 10, 14 and 21 days).
All of the measured values were expressed as average value±standard error. Statistical significance test of the measured values between the reserpine administration groups and the solvent administration group at each point of time was carried out by the two-way analysis of variance and the Bonferroni method. Probability value (P) of less than 5% was judged as statistically significant (P<0.05 was expressed as * in the graphs).

What does the source list for `COC(=O)[C@H]1[C@H]2C[C@@H]3c4[nH]c5cc(OC)ccc5c4CCN3C[C@H]2C[C@@H](OC(=O)c2cc(OC)c(OC)c(OC)c2)[C@@H]1OC` [reserpine]?
time after administration at which transient acute-phase tactile allodynia recovers: 4 h; skin pain sensation threshold value (2, 3, 5, 7, 10, 14 and 21 days after administration): significantly reduced; skin pain sensation threshold value (after 2 hours): significantly reduced
